Assay results as given in ChEMBL document CHEMBL1158498, “Synthesis of 4'-ester analogs of resveratrol and their evaluation in malignant melanoma and pancreatic cell lines” (Bioorg Med Chem Lett, 2010).
Calls of active or inactive are those of the source. The calls are words filed in the database; no cut-off is given here.

Columns and labels:
DM443 = experiment: Cytotoxicity against human DM443 cells at 50 uM after 72 hrs by WST-1 assay; assay type: functional, cell-based
DM738 = experiment: Cytotoxicity against human DM738 cells at 50 uM after 72 hrs by WST-1 assay; assay type: functional, cell-based
PANC-1 [1] = experiment: Cytotoxicity against human PANC1 cells at 50 uM after 72 hrs by WST-1 assay in presence of gemcitabine; assay type: functional, cell-based
NHDF = experiment: Cytotoxicity against human NHDF cells at 50 uM after 72 hrs by WST-1 assay; assay type: cell-based
PANC-1 [2] = experiment: Cytotoxicity against human PANC1 cells at 50 uM after 72 hrs by WST-1 assay; assay type: functional, cell-based

CCCCCC(=O)Oc1ccc(/C=C/c2cc(O)cc(O)c2)cc1
Activity (DM443): Active
Activity (DM738): Active
Activity (PANC-1 [1]): Not toxic

O=C(CCCCC(=O)Oc1ccc(/C=C/c2cc(O)cc(O)c2)cc1)Oc1ccc(/C=C/c2cc(O)cc(O)c2)cc1
Activity (NHDF): Non-toxic
Activity (PANC-1 [1]): Not toxic

CC(=O)Oc1ccc(/C=C/c2cc(OC(C)=O)cc(OC(C)=O)c2)cc1
Activity (PANC-1 [2]): Active
Activity (PANC-1 [1]): Not toxic

CC(C)C(=O)Oc1ccc(/C=C/c2cc(O)cc(O)c2)cc1
Activity (DM443): Active
Activity (DM738): Active
Activity (PANC-1 [1]): Not toxic

CCCCCCCCCCCCCCCC(=O)Oc1ccc(/C=C/c2cc(O)cc(O)c2)cc1
Activity (PANC-1 [1]): Not toxic

CC(=O)Oc1ccc(/C=C/c2cc(O)cc(O)c2)cc1
Activity (NHDF): Non-toxic
Activity (PANC-1 [2]): Active

Oc1cc(F)cc(/C=C/c2ccc(F)cc2)c1
Activity (DM443): Active
Activity (DM738): Active
Activity (PANC-1 [1]): Not toxic

CC(=O)Oc1cc(/C=C/c2ccc(O)cc2)cc(OC(C)=O)c1
Activity (PANC-1 [1]): Not toxic

CCCC(=O)Oc1ccc(/C=C/c2cc(O)cc(O)c2)cc1
Activity (DM443): Active
Activity (DM738): Active
Activity (PANC-1 [1]): Not toxic

CC(=O)Oc1cc(O)cc(/C=C/c2ccc(O)cc2)c1
Activity (PANC-1 [1]): Not toxic

Oc1ccc(/C=C/c2cc(O)cc(O)c2)cc1
Activity (PANC-1 [1]): Not toxic
